According to patent US20070146686A1, “Non-invasive method to monitor microcirculation” (priority 2004, published 2007):

Test system: skin
Conditions: topical application on the skin; images at 0.5, 2, 5, 10 minutes following application; listed as methyl nicotineate amide
Excerpt: Another way of administering the agent is by topical application on the skin. […] This agent is frequently used in skin testing for assessing the sensitivity of the skin.
In this example a modern digital camera technology is utilized, exemplified by Canon IXUS V3, Canon Svenska AB, Solna, Sweden. […] In this approach a flash of white light—or alternatively continuous light—(A, FIG. 4) illuminates the skin (B, FIG. 4) under study after having been linearly polarized by a polarizer (C, FIG. 4) positioned in front of the flash lamp—or a lamp delivering continuous light—(D, FIG. 4). In the skin surface (E, FIG. 4), a fraction of the polarized light is directly reflected towards the camera aperture with essentially no change in polarization. […]
At least two of the normalized data matrixes representing the different colors are then further processed to form an output data matrix (L, FIG. 4), where each value corresponds to the amount of vasodilatation in the actual source point in tissue. In this example, the algorithm generates an output data matrix of which each element is calculated by subtracting the green value from the red value and divides the difference by the sum of the red and the green value of each element of the normalized original data matrixes.

Substance: methyl nicotinate amide
- local vasodilatation in skin: Vasodilatation
